Here are results for one compound from US12396977B2, “Composition for treating degenerative brain diseases, containing 2-pentylfuran as active ingredient” (DAEGU GYEONGBUK INSTITUTE OF SCIENCE AND TECHNOLOGY, priority 2019, dated 2025).

The subject of assay [1] is cerebral cortex. In words: Cytokine mRNA in cerebral cortex after IP injection (qRT-PCR). It is filed as in vivo, mouse. The settings on record: vs control. The source says: For the measurement of mRNA, RNA was isolated from red blood cells, microglia, astrocytes, Hana3A cells, or cerebral cortical cells using the MagNa Lyser (Roche Molecular Diagnostics) using TRIzol reagent (Invitrogen, Carlsbad, CA.) according to the manufacturer's protocol. Then, cDNA was generated through reverse transcription using the isolated mRNA (using PrimeScript™ 1st str and cDNA Synthesis kit—#6110; Takara Bio Inc). This process was quantitatively measured in real time through quantitative real-time-PCR (using LightCycler® 480 SYBR Green I Master). The measured values were calculated using the 2-ΔΔCt method.
In general terms: Quantitative PCR measures a nucleic acid by following its amplification.

Assay [2] concerns microglia. In words: GFP intensity / morphology of microglia in CX3CR1 GFP mice. The following applies: cerebral cortex of CX3CR1 GFP mice after injection, vs control. It is filed as in vivo, mouse. The procedure:
In order to analyze morphological changes in microglia activation, 9-week-old CX3CR1^GFP/− mice were used. Two hours after an IP containing or not containing 2-PF was injected into two mice, brain sections were collected by cryosection. After a 40 μm-thick brain tissue fragment was prepared to be smaller than 1 μm, a GFP signal of microglia was measured using a 40-fold magnification confocal microscope. A GFP-pixel signal of microglia was analyzed using Zeiss ZEN Software (Zeiss).

Assay [3] relates to Olfr111. In words: Luciferase assay in Hana3A cells, Olfr111. It is filed as cell-based, mouse. The settings on record: Hana3A cells.
Procedure: Next, Hana3A cells were transfected with RTP1S, and their location and presence on the cell membrane were confirmed as previously described (Behrens et al., 2009; Zhuang and Matsunami, 2008). Such transfection was performed using Lipofectamine 2000 (#11668-019; Thermo Fisher Scientific) according to the manufacturer's instructions. More specifically, the transfected cells were grown on a coverslip (#0101050; Marienfeld) coated with poly D lysine (10 μg/ml; #P7280; Sigma Aldrich). Next, the cells were washed with a warm PBS solution and cooled with ice for 30 minutes to block endocytosis. […] The cells were then incubated with normal horse serum (#008-000-121; Jackson ImmunoResearch) at room temperature for 1 hour. […] After being washed with PBS, the cells were treated with a Cy3-conjugated donkey anti-mouse antibody (1:1,000; #715-165-150; Jackson ImmunoResearch), an Alexa488-conjugated donkey anti-mouse antibody (1:1,000; #715-545-150; Jackson ImmunoResearch), or a Cy3-conjugated donkey anti-rabbit antibody (1:1,000; #711-165-152; Jackson ImmunoResearch) at room temperature for 1 hour. The cells were mounted with a Vectashield fluorescent mounting medium containing DAPI (#H-1200; Vector Laboratories). The expression of heterologous odorant receptors was analyzed with a confocal laser scanning microscope LSM700 and ZEN software (Zeiss).
The Dual-Glo luciferase assay system (#E2940; Promega) was used for odorant receptor ligand screening. More specifically, Hana3A cells were streaked and spread on a white polystyrene 96-well plate (#353296; BD Biosciences) one day before transfection. pCRELuc (1 μg; #219076; Agilent Technologies), pRL-SV40 (1 μg; #E2231; Promega), RTP1S (1 μg), and OR (6 μg; or Mock) vectors were transfected for 24 hours in each plate. Each plate was analyzed using Lipofectamine 2000 (#11668-019; Thermo Fisher Scientific) according to the manufacturer's protocol. Transfected cells were stimulated in CD293 medium (#11913-019; Thermo Fisher Scientific) at 37° C. for 4 hours using diluted odorants at various concentrations. The activity of luciferase was normalized by the activity of Renilla luciferase. The amount of light emitted was measured using a SpectraMax L microplate reader (Molecular Devices).
Assay [4] deals with primary microglia. As to the kind of experiment: cAMP ELISA in primary microglia. It is filed as cell-based, mouse. The following applies: 2-PF 0, 100, 500 μM. The procedure: Primary microglia were inoculated into 48 well plates (2×10^5 cells/well) and treated with 30 μM forskolin (#F3917, Sigma Aldrich), or 2-PF (10, 100, 500 μM) for 30 minutes. In order to confirm the effect of an inhibitor, 1 mM SQ22536 (#17318-31-9; Calbiochem) was first pretreated for 30 minutes. The cells were lysed in a solution of 0.1 M of HCl with 1% Triton X 100 for 10 minutes, and the lysate was centrifuged at 600×g for 2 minutes. The supernatant was directly used for cAMP analysis using a cAMP ELISA kit (Enzo Life Science) according to the manufacturer's protocol. The optical density at 405 nm was measured using a VersaMax microplate reader (Molecular Devices).

In assay [5] the test system is primary microglia. As to the kind of experiment: Fura-2/AM calcium imaging of microglia. It is filed as cell-based, mouse. The following applies: 2-PF 100, 300, 1000 μM. The procedure:
The newly isolated microglia were placed on poly-D-lysine-coated 18-mm aperture microscope cover glasses (#0111580; Marienfeld), and after 24 hours, the microglia were cultured in a superfusion chamber for 30 minutes. The chamber contained 4 μM of Fura-2/AM (Ca^2+-sensitive fluorescent dye; #F1221; Thermo Fisher Scientific) in a 0.22 μm-filtered Ringer's solution (115 mM NaCl, 2.5 mM KCl, 1 mM CaCl2, 1.5 mM MgCl2, 4.5 mM HEPES, pH 7.4). After calcium staining culture, the chamber was placed under an inverted microscope and rinsed with Ringer's solution for 20 minutes before treatment with […]. In this case, the flow rate of the solution is 12 ml/min. Next, the primary microglia were treated with 300 μM ATP (#A2383; Sigma Aldrich) for 5 seconds. After being washed for 5 minutes, the primary microglia were treated with a 2-pentylfuran solution at a concentration of 100 μM for 5 seconds. This step was performed with a 2-pentylfuran solution at two concentrations (300 and 1000 μM). Finally, the primary microglia were treated with a 300 μM ATP solution for 5 seconds. The emitted fluorescent material was photographed using a CCD camera every 2 seconds. Pseudo-color images were converted using fractional fluorescence changes (ΔF/F, Δ[Ca^2+]i). Furthermore, these images show changes in intracellular calcium ions. […]

Assay [6] has as its system primary microglia. In words: Western blot of phosphorylated signalling proteins in primary microglia. The following applies: 0, 2, 5, 10, 20, 30 minutes after treatment. It is filed as cell-based, mouse. As to the method:
Cells and tissues were prepared using the T-PER® reagent (#78510; Thermo Fisher Scientific) with protease inhibitors (#04-693-116-001; Roche Molecular Diagnostics), DMSF (Sigma-Aldrich) and lysed using the MagNA Lyser (Roche Molecular Diagnostics). A total protein extract was quantified by the Bradford assay. The sample was dissolved in 7.5% SDS-PAGE or 4 to 20% gradient mini-PROTEIN TGX Precast Gels (#456-1064; Bio-Rad Laboratories), and then blotted onto nitrocellulose membranes (#10600002; GE Healthcare). The membrane was then blocked in 5% skimmed milk powder, TBST, 0.1% TWEEN® 20 (#P9416; Sigma-Aldrich) and Tris-buffered saline for 1 hour, and then incubated with primary antibodies at 4° C. overnight. The antibodies are as follows: Olfr110 (36 kDa; 1:1,000; #ab177327; Abcam), anti rhodopsin (39 kDa; 1:1,000; #MABN15; Millipore), CREB (43 kDa; 1:1,000; #9197; Cell Signaling Technology), phospho-CREB (43 kDa; 1:1,000; #9198; Cell Signaling Technology), ERK (44 kDa; 1:1,000; #sc094; Santa Cruz), phospho-ERK (42, 44 kDa; 1:1,000; #sc-7383; Santa Cruz), phospho-Akt (60 kDa; 1:500; sc-293125; Santa Cruz), phospho-JNK (46, 54 kDa; 1:500; sc-6254; Santa Cruz), phosphor-p38 (38 kDa; 1:1,000; sc-7973; Santa Cruz), or beta-Actin (45 kDa; 1:10,000; #4967; Cell Signaling Technology). Furthermore, an isotype-matched horseradish peroxidase-conjugated secondary antibody was used at 1:100,000 with anti-rabbit in TBST (#711-035-152; Jackson ImmunoResearch) and 1:40,000 with anti-mouse (#715-035-150; Jackson ImmunoResearch) at room temperature for 2 hours. As an immunoreactive protein band, SuperSignal™ West Pico Chemiluminescent Substrate (#34080; Thermo Fisher Scientific) was used.
On the technique in general: A western blot detects proteins with antibodies after separation by electrophoresis.

Entries after “also recorded” stand apart in the source; their conditions may differ.

As to `CCCCCc1ccco1` [2-PF, 2-pentylfuran], in assay [1], the “mRNA expression level of inflammatory cytokines in the cerebral cortex” value is “significantly increased”. For the same compound, the “GFP intensity of microglia (morphological change, activation)” value in assay [2] was “highly increased”. Besides, in assay [3], the “reactivity of Olfr111 (relative luciferase activity)” value is listed as “particularly strong reactivity; also recorded: highest reactivity”. In addition, the “cAMP concentration in primary microglia” value in assay [4] is recorded as “increased by 2-PF treatment in a concentration dependent manner”. Further, the “intracellular calcium ion levels” value in assay [5] is “increased according to an injection amount”. In addition, in assay [6], the “phosphorylation levels of ERK, p38, JNK, and Akt” value was “increased from 2 minutes and stopped increasing at 20 minutes”.
